{"source": "patent US8173632B2", "about": "“Process for the modification of the solid state of a compound and co-amorphous compositions produced with same” (priority 2007, dated 2012)", "key": {"[1]": {"test": "Petri dish with non-crystalline aspirin placed on edge (flow test)", "assay_type": "physicochemical", "conditions": "Petri dish placed on edge for about six weeks", "description": "(§1) Subsequent tests with the protocol of Example 1b were repeated with the order of long and short wavelengths reversed, i.e., short wavelength followed by long wavelength cycled sequenced laser treatment. This protocol also produced up to 90 percent yields of room temperature stable non-crystalline glass aspirin, which remained stable at room temperature for over 23 months. The Petri dish containing such a sample of non-crystalline aspirin was placed on edge for a period of about six weeks."}, "[2]": {"test": "Room temperature storage stability of the non-crystalline / co-amorphous form against recrystallization", "assay_type": "physicochemical", "conditions": "for stability of the non-crystalline / co-amorphous form, tendency to recrystallization (in words): room temperature storage", "description": "The present invention is directed to stable crystalline and non-crystalline forms of organic compositions, particularly pharmaceutical compositions, that are stable at room temperature and to processes for producing the stable crystalline and non-crystalline forms with the process of the invention.\nWithin an hour of the evaporation, the system stabilized with 80 percent or more of the mass of the sample cured to a clear non-crystalline form rather than a crystalline form.\nAfter the 6 months of storage, the laser treated aspirin was studied by PXRD.\nas §1\nThe glass cover was removed and the sample was allowed to desolvate in an open container through slow evaporation at about 20° C. and a relative humidity of 31 percent. Before the solvent had fully evaporated, the sample developed a few small areas of apparent crystallization that were surrounded with marker lines. As the evaporation continued, no significant extension of the crystal fronts was observed."}, "[3]": {"conditions": "literature reports; temperature as stated in value; cited from earlier work"}, "[4]": {"conditions": "room temperature; cited from earlier work"}, "[5]": {"conditions": "bulk form, same mass; cited from earlier work"}}, "note": "Entries after “also recorded” stand apart in the source; their conditions may differ.", "data": [{"smiles": "CC(=O)Oc1ccccc1C(=O)O", "note": "[non-crystalline aspirin, Aspirin]", "values": [{"measurement": "flowing of the sample", "setting": "[1]", "value": "No flowing of the sample was observed"}, {"measurement": "period of storage with no change in appearance of the sample", "setting": "[2]; room temperature of about 18° to 22° C. and about 30 to 40 percent humidity, Example 1b", "value": "over 6 months"}, {"measurement": "stability of the non-crystalline / co-amorphous form, tendency to recrystallization (in words)", "setting": "[2]", "value": "remain stable at room temperature for at least up to about a year; also recorded: stable at room temperature once the solvent had evaporated; also recorded: No crystallization has been observed in similarly prepared samples following an additional six months of storage"}, {"measurement": "period the non-crystalline glass remained stable", "setting": "[2]; room temperature, Example 1c, short wavelength followed by long wavelength", "value": "over 23 months"}]}, {"smiles": "CC(=O)Oc1ccccc1C(=O)O", "note": "[Aspirin Form II, aspirin]", "values": [{"measurement": "stability of prior art aspirin forms against conversion / crystallization (in words)", "setting": "[3]", "value": "kinetically stable at 100 K (−173° C.), but converts back to Form I at ambient conditions"}]}, {"smiles": "CC(=O)Oc1ccccc1C(=O)O", "note": "[crystalline aspirin, Aspirin]", "values": [{"measurement": "solubility in water", "setting": "[4]", "value": 3330, "unit": "µg/mL"}]}, {"smiles": "CC(=O)Oc1ccccc1C(=O)O", "note": "[vitreous aspirin, aspirin]", "values": [{"measurement": "dissolution of bulk vitreous aspirin compared with powdered crystals", "setting": "[5]", "value": "dissolve more slowly than the same mass of finely powdered crystals of aspirin"}, {"measurement": "stability of prior art aspirin forms against conversion / crystallization (in words)", "setting": "[3]", "value": "did not crystallize for four to five days at 298K"}]}, {"smiles": "CC(=O)Oc1ccccc1C(=O)O", "note": "[amorphous aspirin, aspirin]", "values": [{"measurement": "stability of prior art aspirin forms against conversion / crystallization (in words)", "setting": "[3]", "value": "converts rapidly to the crystalline Form I"}]}, {"smiles": "O=C1[C@H](CC[C@H](O)c2ccc(F)cc2)[C@@H](c2ccc(O)cc2)N1c1ccc(F)cc1", "note": "[non-crystalline ezetimibe, Ezetimibe]", "values": [{"measurement": "stability of the non-crystalline / co-amorphous form, tendency to recrystallization (in words)", "setting": "[2]", "value": "remained stable for five weeks; also recorded: resisted crystallization even when adjacent to an organizing crystal front"}]}]}
